Results taken from patent US9211310B2, “Use of a Chinese medicine composition in preparing medicaments for treating secondary prevention of myocardial infarction” (TASLY PHARMACEUTICAL GROUP CO., LTD, priority 2010, dated 2015).

System: patients after acute myocardial infarction
Assay: Life quality, Seattle Angina Questionnaire (SAQ), same clinical trial
Assay type: in vivo, human
Conditions: PP
Source text: 3508 patients who were in accordance with the diagnostic standards of AMI for 28 days to 2 years and differentiated as Qi deficiency and blood stagnation syndrome by TCM were studied. 0.5 g Chinese medicine composition prepared by the method of EXAMPLE 1 (Coded as QSYQ) was administrated half an hour after meal, 3 times per day.
There were 19 questions in the Seattle angina questionnaire (SAQ), including 5 parts: physical limitation (PL), anginal stability (AS), anginal frequency (AF), treatment satisfaction (TS) and disease perception (DP). After being given necessary explanation by doctors, the questions were answered independently by patients.
They included the overall survival time, angina pectoris score, TCM symptom score and life quality score, where angina pectoris score, TCM symptom score and life quality score were evaluated at randomization, in 1st, 3rd, 6th, 9th, 12th month after treatment and 18th month after follow-up.
All evaluation results of SAQ were described during the period of observation, and Wilcoxon rank sum test was used for inter-group comparison.
The evaluation results in the SAQ were depicted in different observations, and inter-group comparison was tested by Wilcoxon Rank-sum test.

SMILES: CC(=O)Oc1ccccc1C(=O)O [Control group, aspirine]
- SAQ 5th question, <1 time per week: number of patients (9 months after treatment): 412
- SAQ 5th question, No onset: % of patients (9 months after treatment): (4.66%)
- SAQ 5th question, No onset: number of patients (9 months after treatment): 67
- SAQ 5th question, ≧3 times per week: % of patients (9 months after treatment): (29.49%)
- SAQ 5th question, ≧3 times per week: number of patients (9 months after treatment): 424
- SAQ 5th question, ≧4 times per day: % of patients (9 months after treatment): (0.49%)
- SAQ 5th question, ≧4 times per day: number of patients (9 months after treatment): 7
- SAQ 6th question, Dissatisfied: % of patients (9 months after treatment): (0.07%)
- SAQ 6th question, Dissatisfied: number of patients (9 months after treatment): 1
- SAQ 6th question, Highly satisfied: % of patients (9 months after treatment): (24.93%)
- SAQ 6th question, Highly satisfied: number of patients (9 months after treatment): 359
- SAQ 6th question, Mostly dissatisfied: % of patients (9 months after treatment): (1.53%)
- SAQ 6th question, Mostly dissatisfied: number of patients (9 months after treatment): 22
- SAQ 6th question, Mostly satisfied: % of patients (9 months after treatment): (59.38%)
- SAQ 6th question, Mostly satisfied: number of patients (9 months after treatment): 855
- SAQ 6th question, Partly satisfied: % of patients (9 months after treatment): (14.10%)
- SAQ 6th question, Partly satisfied: number of patients (9 months after treatment): 203
- SAQ 7th question, Dissatisfied: % of patients (9 months after treatment): (0.07%)
- SAQ 7th question, Dissatisfied: number of patients (9 months after treatment): 1
- SAQ 7th question, Highly satisfied: % of patients (9 months after treatment): (28.44%)
- SAQ 7th question, Highly satisfied: number of patients (9 months after treatment): 409
- SAQ 7th question, Most dissatisfied: % of patients (9 months after treatment): (0.83%)
- SAQ 7th question, Most dissatisfied: number of patients (9 months after treatment): 12
- SAQ 7th question, Mostly satisfied: % of patients (9 months after treatment): (59.74%)
- SAQ 7th question, Mostly satisfied: number of patients (9 months after treatment): 859
- SAQ 7th question, Partly satisfied: % of patients (9 months after treatment): (10.92%)
- SAQ 7th question, Partly satisfied: number of patients (9 months after treatment): 157
- SAQ Question 1-1 Mildly limited, number of patients (9 months after treatment): 18
- SAQ Question 1-1 Mildly limited, percent of patients (9 months after treatment): (1.25%)
- SAQ Question 1-1 Moderately limited, number of patients (9 months after treatment): 3
- SAQ Question 1-1 Moderately limited, percent of patients (9 months after treatment): (0.21%)
- SAQ Question 1-1 Not limited, number of patients (9 months after treatment): 1366
- SAQ Question 1-1 Not limited, percent of patients (9 months after treatment): (95.06%)
- SAQ Question 1-1 Other reasons, number of patients (9 months after treatment): 3
- SAQ Question 1-1 Other reasons, percent of patients (9 months after treatment): (0.21%)
- SAQ Question 1-1 Severely limited, number of patients (9 months after treatment): 0
- SAQ Question 1-1 Severely limited, percent of patients (9 months after treatment): (0.00%)
- SAQ Question 1-1 Slightly limited, number of patients (9 months after treatment): 47
- SAQ Question 1-1 Slightly limited, percent of patients (9 months after treatment): (3.27%)
- SAQ Question 1-2 Mildly limited, number of patients (9 months after treatment): 20
- SAQ Question 1-2 Mildly limited, percent of patients (9 months after treatment): (1.39%)
- SAQ Question 1-2 Moderately limited, number of patients (9 months after treatment): 4
- SAQ Question 1-2 Moderately limited, percent of patients (9 months after treatment): (0.28%)
- SAQ Question 1-2 Not limited, number of patients (9 months after treatment): 1358
- SAQ Question 1-2 Not limited, percent of patients (9 months after treatment): (94.50%)
- SAQ Question 1-2 Other reasons, number of patients (9 months after treatment): 5
- SAQ Question 1-2 Other reasons, percent of patients (9 months after treatment): (0.35%)
- SAQ Question 1-2 Severely limited, number of patients (9 months after treatment): 0
- SAQ Question 1-2 Severely limited, percent of patients (9 months after treatment): (0.00%)
- SAQ Question 1-2 Slightly limited, number of patients (9 months after treatment): 50
- SAQ Question 1-2 Slightly limited, percent of patients (9 months after treatment): (3.48%)
- SAQ Question 1-6: Mildly limited, patients (%) (9 months after treatment): (14.59%)
- SAQ Question 1-6: Moderately limited, patients (%) (9 months after treatment): (11.31%)
- SAQ Question 1-6: Not limited, patients (%) (9 months after treatment): (38.48%)
- SAQ Question 1-6: Other reasons, patients (%) (9 months after treatment): (0.91%)
- SAQ Question 1-6: Severely limited, patients (%) (9 months after treatment): (2.30%)
- SAQ Question 1-6: Slightly limited, patients (%) (9 months after treatment): (32.40%)
- SAQ Question 1-7: Mildly limited, patients (%) (9 months after treatment): (21.63%)
- SAQ Question 1-7: Moderately limited, patients (%) (9 months after treatment): (10.88%)
- SAQ Question 1-7: Not limited, patients (%) (9 months after treatment): (18.30%)
- SAQ Question 1-7: Other reasons, patients (%) (9 months after treatment): (3.25%)
- SAQ Question 1-7: Severely limited, patients (%) (9 months after treatment): (13.71%)
- SAQ Question 1-7: Slightly limited, patients (%) (9 months after treatment): (32.23%)
- SAQ Question 1-8: Mildly limited, patients (%) (9 months after treatment): (25.11%)
- SAQ Question 1-8: Moderately limited, patients (%) (9 months after treatment): (14.11%)
- SAQ Question 1-8: Not limited, patients (%) (9 months after treatment): (12.34%)
- SAQ Question 1-8: Other limited, patients (%) (9 months after treatment): (3.76%)
- SAQ Question 1-8: Severely limited, patients (%) (9 months after treatment): (17.23%)
- SAQ Question 1-8: Slightly limited, patients (%) (9 months after treatment): (27.45%)
- 8th question: Dissatisfied, patients (%) (12 months after treatment): (0.00%)
- 8th question: Highly satisfied, patients (%) (12 months after treatment): (26.80%)
- 8th question: Mostly dissatisfied, patients (%) (12 months after treatment): (1.26%)
- 8th question: Mostly satisfied, patients (%) (12 months after treatment): (61.16%)
- 8th question: Partly satisfied, patients (%) (12 months after treatment): (10.78%)
- 9th question: Few, patients (%) (12 months after treatment): (41.42%)
- 9th question: Mild, patients (%) (12 months after treatment): (29.64%)
- 9th question: Moderate, patients (%) (12 months after treatment): (4.48%)
